This is an account of results in the supplement of paper PMC6045584.

Compound in test [1]: T1, CO[C@H]1C[C@@H]2CC[C@@H](C)[C@@](O)(O2)C(=O)C(=O)N2CCCC[C@H]2C(=O)O[C@H]([C@H](C)C[C@@H]2CC[C@@H](OCCO)[C@H](OC)C2)CC(=O)[C@H](C)/C=C(\C)[C@@H](O)[C@@H](OC)C(=O)[C@H](C)C[C@H](C)/C=C/C=C/C=C/1C [EVEROLIMUS]
As to the kind of experiment: surviving fraction relative to DMSO-only wells; higher = less growth inhibition. The following applies: exposure time: 5 days. The procedure, abridged: (§1)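 Tumour cell lines in log phase were plated in 384-well plates at 250–500 cells per well, then, after 24 hours, exposed continuously for five days to inhibitors at 0.5, 1, 5, 10, 50, 100, 500 and 1000 nM. Viability came from CellTiter-Glo luminescence, and surviving fraction is that signal normalised to the median of DMSO-only wells. Plates were read after 10 minutes at room temperature, and each line, screened three times, was kept only when replicate Pearson r was >0.7 and median Z' was >0.3.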

Compound in test [2]: T2, NC1(c2ccc(-c3nc4ccn5c(=O)[nH]nc5c4cc3-c3ccccc3)cc2)CCC1 [MK2206]
The test is described as above. Conditions: exposure time: 5 days. The essentials: as §1

Compound in test [3]: T3, C#Cc1cccc(Nc2ncnc3cc(OCCOC)c(OCCOC)cc23)c1 [ERLOTINIB]
The description is as above. Conditions: exposure time: 5 days. The procedure, abridged: as §1

Compound in test [4]: T4, CN(Cc1cnc2nc(N)nc(N)c2n1)c1ccc(C(=O)N[C@@H](CCC(=O)O)C(=O)O)cc1 [METHOTREXATE]
Described as above. The following applies: exposure time: 5 days. The essentials: as §1

Compound in test [5]: T1, EVEROLIMUS
In words: area under dose-response curve of surviving fraction (unscaled, Aref=0) (surviving fraction x log10(nM)); higher = more resistant. The following applies: exposure time: 5 days; dose range 0.5-1000 nM. The procedure, abridged: (§2)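 Tumour cell lines in 384-well plates were exposed for five days to eight inhibitor concentrations from 0.5 to 1000 nM. Viability was read by CellTiter-Glo luminescence, normalised to DMSO-only wells, in three screens per line. Dose-response survival curves were fitted to surviving fractions by 3-parameter logistic regression in the drc R package. Area under the curve is the unscaled activity area (Aref = 0) over log10 dose.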

Compound in test [6]: T2, MK2206
Described as above. Conditions: exposure time: 5 days; dose range 0.5-1000 nM. The procedure, abridged:
as §2

Compound in test [7]: T3, ERLOTINIB
Described as above. The following applies: exposure time: 5 days; dose range 0.5-1000 nM. The essentials:
as §2

Compound in test [8]: Nc1ccn([C@@H]2O[C@H](CO)[C@@H](O)C2(F)F)c(=O)n1 [GEMCITABINE]
The test is described as above. Conditions: exposure time: 5 days; dose range 0.5-1000 nM. The procedure, abridged:
as §2

Compound in test [9]: T4, METHOTREXATE
The test is described as above. Conditions: exposure time: 5 days; dose range 0.5-1000 nM. The procedure, abridged: as §2

Compound in test [10]: COc1cc(CCc2cc(NC(=O)c3ccc(N4CC(C)NC(C)C4)cc3)n[nH]2)cc(OC)c1 [AZD4547]
The description is as above. Conditions: exposure time: 5 days; dose range 0.5-1000 nM. The essentials:
as §2

Compound in test [11]: CCN(CC)CCNC(=O)c1c(C)[nH]c(/C=C2\C(=O)Nc3ccc(F)cc32)c1C [SUNITINIB]
The test is described as above. Conditions: exposure time: 5 days; dose range 0.5-1000 nM. The procedure, abridged: as §2

Compound in test [12]: CCCS(=O)(=O)Nc1ccc(F)c(C(=O)c2c[nH]c3ncc(Cl)cc23)c1F [PLX-4720]
The description is as above. Conditions: exposure time: 5 days; dose range 0.5-1000 nM. The essentials: as §2

Compound in test [13]: CCC1=C[C@@H]2CN(C1)Cc1c([nH]c3ccccc13)[C@@](C(=O)OC)(c1cc3c(cc1OC)N(C)[C@H]1[C@@](O)(C(=O)OC)[C@H](OC(C)=O)[C@]4(CC)C=CCN5CC[C@]31[C@@H]54)C2 [VINORELBINE]
The description is as above. Conditions: exposure time: 5 days; dose range 0.5-1000 nM. The procedure, abridged: as §2

Compound in test [14]: O=C(NOCC1CC1)c1ccc(F)c(F)c1Nc1ccc(I)cc1Cl
The description is as above. The following applies: exposure time: 5 days; dose range 0.5-1000 nM. The procedure, abridged: as §2

Compound in test [15]: COc1cc([C@@H]2c3cc4c(cc3[C@@H](O[C@@H]3O[C@@H]5CO[C@@H](C)O[C@H]5[C@H](O)[C@H]3O)[C@H]3COC(=O)[C@H]23)OCO4)cc(OC)c1O [ETOPOSIDE]
Described as above. The following applies: exposure time: 5 days; dose range 0.5-1000 nM. The essentials: as §2

Compound in test [16]: Cc1nc(Nc2n[nH]c3c2CN(C(=O)N[C@H](CN(C)C)c2ccccc2)C3(C)C)c2sccc2n1
The test is described as above. The following applies: exposure time: 5 days; dose range 0.5-1000 nM. The procedure, abridged: as §2

± gives the standard deviation of the averaged measurements.

For CCK81 LARGE INTESTINE, the surviving fraction in test [1] (0.5 nM) stood at 0.812 ± 0.075; in test [1] (1 nM), 0.754 ± 0.031; in [1] (5 nM), 0.701 ± 0.11; in [1] (10 nM), 0.711 ± 0.14; in test [1] (50 nM), 0.715 ± 0.041; in test [1] (100 nM) it was 0.756 ± 0.048. Besides, the surviving fraction worked out at 0.551 ± 0.1 in [1] (500 nM); 0.5123 ± 0.004 in [1] (1000 nM); 0.868 ± 0.21 in [2] (0.5 nM); 0.793 ± 0.089 in test [2] (1 nM); 0.751 ± 0.14 in test [2] (5 nM); 0.809 ± 0.053 in test [2] (10 nM). The surviving fraction amounted to 0.728 ± 0.075 in [2] (50 nM); 0.798 ± 0.098 in [2] (100 nM); 0.944 ± 0.13 in [2] (500 nM); 0.806 ± 0.049 in [2] (1000 nM); 0.779 ± 0.2 in test [3] (0.5 nM); 0.794 ± 0.077 in test [3] (5 nM). Also, the surviving fraction came out at 0.774 ± 0.13 in test [3] (10 nM); 0.774 ± 0.11 in test [3] (50 nM); 0.749 ± 0.065 in test [3] (100 nM); 0.19 ± 0.012 in test [3] (500 nM); 0.78 ± 0.031 in [3] (1000 nM); 0.75 ± 0.13 in test [4] (0.5 nM). Also, the surviving fraction in test [4] (1 nM) amounted to 0.843 ± 0.061; in [4] (5 nM), 0.716 ± 0.15; in test [4] (10 nM) it was 0.697 ± 0.029; in test [4] (50 nM), 0.701 ± 0.054; in test [4] (100 nM) it was 0.663 ± 0.083; in [4] (500 nM), 0.697 ± 0.077. Also, the surviving fraction in test [4] (1000 nM) stood at 0.714 ± 0.095. For the same test system, the “area under dose-response curve” value in [5] came to 2.28; in [6], 2.67; in [7] it was 2.36; in [8], 1.48; in [9], 2.37.
Turning to HS57T LUNG, the “area under dose-response curve” value was 2.66 in test [10]; 2.84 in [11]; 1.54 in test [5]; 3.1 in test [12]; 3.09 in [6]; 1.21 in test [13]. Also, the “area under dose-response curve” value turned out to be 2.83 in [14]; 3.44 in [7]; 1.27 in test [8]; 2.88 in test [15]; 2.04 in test [9]; 1.13 in test [16].
